This is an account of results in ChEMBL document CHEMBL4420076, “Amylin and calcitonin receptor agonist” (2017).

In data set [1] the test system is Rattus norvegicus. As to the kind of experiment: Reduction in food intake in Sprague-Dawley rat at 3 nmol/kg measured 0 to 24 hrs post dose relative to control. The format is functional. Further details: scale not given: the % may be the effect or the level left.
Data set [2] relates to Rattus norvegicus. As to the kind of experiment: Reduction in food intake in Sprague-Dawley rat at 3 nmol/kg measured 24 to 48 hrs post dose relative to control. The format is functional. Further details: scale not given: the % may be the effect or the level left.
In data set [3] the target is T1, Amylin receptor AMY3; CALCR/RAMP3 (Homo sapiens, UniProt O60896+P30988).
T1 sequence (P30988 whole entry): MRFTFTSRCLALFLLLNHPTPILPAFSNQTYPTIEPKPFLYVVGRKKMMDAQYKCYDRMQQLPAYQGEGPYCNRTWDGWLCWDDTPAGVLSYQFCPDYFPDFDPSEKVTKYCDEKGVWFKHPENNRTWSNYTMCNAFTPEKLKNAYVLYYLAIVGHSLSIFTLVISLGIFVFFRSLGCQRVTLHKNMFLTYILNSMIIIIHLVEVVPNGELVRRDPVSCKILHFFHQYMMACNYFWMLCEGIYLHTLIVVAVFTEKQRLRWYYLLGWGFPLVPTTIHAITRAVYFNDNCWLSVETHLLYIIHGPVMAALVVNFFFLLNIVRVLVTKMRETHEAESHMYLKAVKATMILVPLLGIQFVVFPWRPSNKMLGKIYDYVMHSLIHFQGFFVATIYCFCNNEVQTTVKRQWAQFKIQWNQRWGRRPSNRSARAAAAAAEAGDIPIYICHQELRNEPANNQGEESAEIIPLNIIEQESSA
T1 sequence (O60896 whole entry): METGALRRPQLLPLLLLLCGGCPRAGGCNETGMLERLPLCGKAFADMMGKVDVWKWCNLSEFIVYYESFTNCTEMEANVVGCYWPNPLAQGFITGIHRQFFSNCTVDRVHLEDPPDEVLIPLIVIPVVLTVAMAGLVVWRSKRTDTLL
In words: Agonist activity at human amylin receptor expressed in BHK570 cells co-expressing RAMP3 assessed as increase in intracellular cAMP concentration incubated for 3 hrs in absence of albumin by CRE luciferase reporter gene assay. It counts as functional, cell-based. A general note: Reporter assays use an easily measured gene product as a stand-in for the process of interest.

Data set [4] concerns the target T2, Calcitonin receptor (Homo sapiens, UniProt P30988).
T2 sequence (P30988 whole entry): T1 sequence (P30988 whole entry)
As to the kind of experiment: Agonist activity at human calcitonin receptor expressed in BHK570 cells assessed as increase in intracellular cAMP concentration incubated for 3 hrs in absence of albumin by CRE luciferase reporter gene assay. It counts as functional, cell-based.

Data set [5] addresses T1, Amylin receptor AMY3; CALCR/RAMP3. In words: Agonist activity at human amylin receptor expressed in BHK570 cells co-expressing RAMP3 assessed as increase in intracellular cAMP concentration incubated for 3 hrs in presence of 10% FBS by CRE luciferase reporter gene assay. It counts as functional, cell-based.
The target of data set [6] is T2, Calcitonin receptor. In words: Agonist activity at human calcitonin receptor expressed in BHK570 cells assessed as increase in intracellular cAMP concentration incubated for 3 hrs in presence of 10% FBS by CRE luciferase reporter gene assay. It counts as functional, cell-based.
Data set [7] is described as follows: Solubility in 100 mM glycylglycine buffer at pH 3.0 incubated for 18 hrs by UPLC analysis. The format is physicochemical.
A short description of data set [8]: Solubility in 100 mM glycylglycine buffer at pH 4.0 incubated for 18 hrs by UPLC analysis. It counts as physicochemical.
The nature of data set [9]: Solubility in 100 mM bistrispropane buffer at pH 6.0 incubated for 18 hrs by UPLC analysis. It counts as physicochemical.
A short description of data set [10]: Solubility in 100 mM glycylglycine buffer at pH 5.0 incubated for 18 hrs by UPLC analysis. It counts as physicochemical.
A short description of data set [11]: Solubility in 100 mM bistrispropane buffer at pH 6.5 incubated for 18 hrs by UPLC analysis. It counts as physicochemical.
Data set [12] is described as follows: Solubility in 100 mM bistrispropane buffer at pH 7.0 incubated for 18 hrs by UPLC analysis. The format is physicochemical.
Data set [13] can be described thus: Solubility in 100 mM bistrispropane buffer at pH 7.5 incubated for 18 hrs by UPLC analysis. It counts as physicochemical.
Data set [14] in a line: Solubility in 100 mM bistrispropane buffer at pH 8.0 incubated for 18 hrs by UPLC analysis. The format is physicochemical.
The target in data set [15] is T1, Amylin receptor AMY3; CALCR/RAMP3. In words: Displacement of [125I]-labeled rat amylin from human amylin receptor expressed in BHK tkts13 whole cells co-expressing RAMP3 incubated for 60 mins by scintillation proximity assay. The format is cell-based. A general note: Loss of bound radioactivity is the signal in a displacement assay; it reports binding, not function.

pEC50, pIC50: −log10 of the molar value. Numbered stars: 1 amine (or outer) side, 2 acyl side, 3 side chain; on linkers, the order of the positions; unused ones are H or OH. Peptide text beside a SMILES is read from it. * marks the point of attachment. C20 diacid = O=C(O)CCCCCCCCCCCCCCCCCCC(=O)*; C18 diacid = O=C(O)CCCCCCCCCCCCCCCCC(=O)*; γGlu = O=C(O)[C@H](CCC(=O)[*:2])N[*:1]

Take `CC(C)C[C@H](NC(=O)[C@H](C)NC(=O)[C@H](C)NC(=O)[C@@H](NC(=O)[C@H](CO)NC(=O)[C@H](CC(C)C)NC(=O)[C@H](CCC(=O)O)NC(=O)[C@H](CO)NC(=O)[C@H](C)NC(=O)CC[C@H](NC(=O)CCCCCCCCCCCCCCCCC(=O)O)C(=O)O)[C@@H](C)O)C(=O)NCC(=O)N[C@@H](CCCNC(=N)N)C(=O)N[C@@H](CC(C)C)C(=O)N[C@@H](CO)C(=O)N[C@@H](C)C(=O)N[C@@H](CCC(=O)O)C(=O)N[C@@H](CC(C)C)C(=O)N[C@@H](Cc1c[nH]cn1)C(=O)N[C@@H](CCC(=O)O)C(=O)N[C@@H](CC(C)C)C(=O)N[C@@H](C)C(=O)N[C@H](C(=O)N[C@@H](Cc1ccc(O)cc1)C(=O)N1CCC[C@H]1C(=O)N[C@@H](CCCNC(=N)N)C(=O)N[C@H](C(=O)N[C@@H](CCC(=O)O)C(=O)N[C@H](C(=O)NCC(=O)N[C@@H](CO)C(=O)NCC(=O)N[C@@H](CO)C(=O)N1CCC[C@H]1C(N)=O)[C@@H](C)O)[C@@H](C)O)[C@@H](C)O` ({C18 diacid-γGlu}-ASELSTAALGRLSAELHELATYPRTETGSGSP-NH2): the Activity in the data set on Rattus norvegicus [1] was found to be 74%; in the data set with Rattus norvegicus [2] it was 63%.

On to `CC(C)C[C@H](NC(=O)[C@H](CCC(=O)O)NC(=O)[C@H](Cc1cnc[nH]1)NC(=O)[C@H](CC(C)C)NC(=O)[C@H](CCC(=O)O)NC(=O)[C@H](C)NC(=O)[C@H](CO)NC(=O)[C@H](CC(C)C)NC(=O)[C@H](CCCNC(=N)N)NC(=O)CNC(=O)[C@H](CC(C)C)NC(=O)[C@@H](NC(=O)[C@H](C)NC(=O)[C@@H](NC(=O)[C@H](CO)NC(=O)[C@H](CC(C)C)NC(=O)[C@H](CCC(=O)O)NC(=O)[C@H](CO)NC(=O)[C@H](C)NC(=O)CC[C@H](NC(=O)CCCCCCCCCCCCCCCCC(=O)O)C(=O)O)[C@@H](C)O)C(C)C)C(=O)N[C@@H](C)C(=O)N[C@H](C(=O)N[C@@H](CC(C)C)C(=O)N1CCC[C@H]1C(=O)N[C@@H](CCCNC(=N)N)C(=O)N[C@H](C(=O)N[C@@H](CCC(=O)O)C(=O)N[C@H](C(=O)NCC(=O)N[C@@H](CO)C(=O)NCC(=O)N[C@@H](CO)C(=O)N1CCC[C@H]1C(N)=O)[C@@H](C)O)[C@@H](C)O)[C@@H](C)O` ({C18 diacid-γGlu}-ASELSTAVLGRLSAELHELATLPRTETGSGSP-NH2), for which the pEC50 – broadly, the EC50 on a negative log10 scale, so that one unit is a factor of ten – in data set [3] was 11.00; at Calcitonin receptor [4], 10.85; in data set [5], 10.77; on Calcitonin receptor [6], 10.96. Also, the solubility at 18 h in [7], in data set [8], in data set [9], in data set [10], in [11] and in [12] was at least 200 µM each time. For the same molecule, the solubility at 18 h in [13] and in data set [14] was at least 200 µM each time. In addition, the pIC50 (usually the IC50 on a negative log10 scale, so that one unit is a factor of ten) in data set [15] was 9.12.

In the case of `CC(C)C[C@H](NC(=O)[C@H](CCC(=O)O)NC(=O)[C@H](Cc1cnc[nH]1)NC(=O)[C@H](CC(C)C)NC(=O)[C@H](CCC(=O)O)NC(=O)[C@H](C)NC(=O)[C@H](CO)NC(=O)[C@H](CC(C)C)NC(=O)[C@H](CCCNC(=N)N)NC(=O)CNC(=O)[C@H](CC(C)C)NC(=O)[C@@H](NC(=O)[C@H](C)NC(=O)[C@@H](NC(=O)[C@@H](NC(=O)[C@H](CC(C)C)NC(=O)[C@H](CCC(=O)O)NC(=O)[C@H](CO)NC(=O)[C@H](C)NC(=O)CC[C@H](NC(=O)CCCCCCCCCCCCCCCCC(=O)O)C(=O)O)[C@@H](C)O)[C@@H](C)O)C(C)C)C(=O)N[C@@H](C)C(=O)N[C@H](C(=O)N[C@@H](CC(C)C)C(=O)N1CCC[C@H]1C(=O)N[C@@H](CCCNC(=N)N)C(=O)N[C@H](C(=O)N[C@@H](CCC(=O)O)C(=O)N[C@H](C(=O)NCC(=O)N[C@H](C(=O)NCC(=O)N[C@H](C(=O)N1CCC[C@H]1C(N)=O)[C@@H](C)O)[C@@H](C)O)[C@@H](C)O)[C@@H](C)O)[C@@H](C)O` ({C18 diacid-γGlu}-ASELTTAVLGRLSAELHELATLPRTETGTGTP-NH2), the pEC50 was 10.19 in [3], 10.49 on Calcitonin receptor [4], 10.28 in data set [5] and 10.89 on Calcitonin receptor [6]. Moreover, the solubility at 18 h in data set [7], in [8], in data set [9], in [10], in data set [11] and in [12] was at least 200 µM each time. The solubility at 18 h in data set [13] and in [14] was at least 200 µM in each case. Also, the pIC50 in [15] was 8.67.

As to `CC(C)C[C@H](NC(=O)CNC(=O)[C@H](CO)NC(=O)[C@H](C)NC(=O)CC[C@H](NC(=O)CCCCCCCCCCCCCCCCCCC(=O)O)C(=O)O)C(=O)N[C@@H](CO)C(=O)N[C@H](C(=O)N[C@@H](C)C(=O)N[C@@H](C)C(=O)N[C@@H](CC(C)C)C(=O)NCC(=O)N[C@@H](CCCNC(=N)N)C(=O)N[C@@H](CC(C)C)C(=O)N[C@@H](CO)C(=O)N[C@@H](C)C(=O)N[C@@H](CCC(=O)O)C(=O)N[C@@H](CC(C)C)C(=O)N[C@@H](Cc1cnc[nH]1)C(=O)N[C@@H](CCC(=O)O)C(=O)N[C@@H](CC(C)C)C(=O)N[C@@H](C)C(=O)N[C@H](C(=O)N[C@@H](Cc1ccc(O)cc1)C(=O)N1CCC[C@H]1C(=O)N[C@@H](CCCNC(=N)N)C(=O)N[C@H](C(=O)N[C@@H](CCC(=O)O)C(=O)N[C@H](C(=O)NCC(=O)N[C@@H](CO)C(=O)NCC(=O)N[C@@H](CO)C(=O)N1CCC[C@H]1C(N)=O)[C@@H](C)O)[C@@H](C)O)[C@@H](C)O)[C@@H](C)O` ({C20 diacid-γGlu}-ASGLSTAALGRLSAELHELATYPRTETGSGSP-NH2), the pEC50 was 10.42 in data set [3], 10.38 on Calcitonin receptor [4], 10.15 in data set [5] and 10.35 on Calcitonin receptor [6]. The solubility at 18 h in [7], in data set [8], in data set [9], in data set [10], in [11] and in [12] was at least 200 µM each time. In addition, the solubility at 18 h in data set [13] and in [14] was at least 200 µM throughout. Further, the pIC50 in data set [15] was 9.95.

With `CC(C)C[C@H](NC(=O)[C@H](C)NC(=O)[C@H](C)NC(=O)[C@@H](NC(=O)[C@H](CO)NC(=O)[C@H](CC(C)C)NC(=O)[C@H](CCC(=O)O)NC(=O)[C@H](CO)NC(=O)[C@H](C)NC(=O)[C@H](CCC(=O)O)NC(=O)CC[C@H](NC(=O)CCCCCCCCCCCCCCCCCCC(=O)O)C(=O)O)[C@@H](C)O)C(=O)NCC(=O)N[C@@H](CCCNC(=N)N)C(=O)N[C@@H](CC(C)C)C(=O)N[C@@H](CO)C(=O)N[C@@H](C)C(=O)N[C@@H](CCC(=O)O)C(=O)N[C@@H](CC(C)C)C(=O)N[C@@H](Cc1cnc[nH]1)C(=O)N[C@@H](CCC(=O)O)C(=O)N[C@@H](CC(C)C)C(=O)N[C@@H](C)C(=O)N[C@H](C(=O)N[C@@H](Cc1ccc(O)cc1)C(=O)N1CCC[C@H]1C(=O)N[C@@H](CCCNC(=N)N)C(=O)N[C@H](C(=O)N[C@@H](CCC(=O)O)C(=O)N[C@H](C(=O)NCC(=O)N[C@@H](CO)C(=O)NCC(=O)N[C@@H](CO)C(=O)N1CCC[C@H]1C(N)=O)[C@@H](C)O)[C@@H](C)O)[C@@H](C)O` ({C20 diacid-γGlu}-EASELSTAALGRLSAELHELATYPRTETGSGSP-NH2), the pEC50 in data set [3] was 10.92; on Calcitonin receptor [4] it was 10.85; in [5], 9.84; on Calcitonin receptor [6] it was 10.13. Further, the solubility at 18 h in [7], in [8], in data set [9], in [10], in [11] and in [12] was at least 200 µM throughout. In addition, the solubility at 18 h in data set [13] and in [14] was at least 200 µM each time. Further, the pIC50 in data set [15] is 8.80.
